This is an account of results in patent US20100062063A1, “LIGHT-STABLE SOLID PHARMACEUTICAL COMPOSITION OF RAMOSETRON” (ASTELLAS PHARMA INC., priority 2006, published 2010).

Data set [1] in a line: Stability under sealing of an HDPE plastic bottle at 40° C. and 75% RH, assay value by liquid chromatography. In kind it is physicochemical. The note with it: compound added to ramosetron or its salt.
Data set [2] is described as follows: Area under the light absorbance spectrum curve of a 0.001 w/v % aqueous solution (UV meter, trapezoidal formula). In kind it is physicochemical. Conditions: 0.001 w/v % aqueous solution of the added compound. As to the method:
FIG. 1 is a graph showing the relationship between the absorbance wavelength and the absorbance of various compounds. The measurement method is as follows. A 0.001 w/v % aqueous solution of a drug and various stabilizers was prepared, and the absorbances at each absorbance wavelength in a range of 200 nm to 600 nm were measured. […] Condition: scan speed: medium speed, sampling pitch: 1.0, length of light path: 10 mm, width of a slit: 2.0 nm.
FIG. 2 is a graph showing a method for calculating the area under the spectrum curve of various compounds. The area under the spectrum curve was calculated by a trapezoidal formula. That is, for the spectrum of each of the compounds, the trapezoidal area was calculated at every sampling pitch (1.0 nm), and a desired area was measured from the total value of the trapezoidal areas in the wavelength range.

Data set [3] is described as follows: Stability under irradiation with a white fluorescent lamp of 1000 Lux, assay value by liquid chromatography. Conditions: compound added to ramosetron hydrochloride preparation.
Experimental: The quantitative determination was carried out by liquid chromatography.

“Also recorded” adds a separate entry of the source.

As for methyl hesperidin, the “stabilizing effect of the added compound on ramosetron under a high-temperature and high-humidity condition (in words)” value in data set [1] was “a remarkable stabilizing effect under a high-temperature and high-humidity condition”. In addition, in data set [2], the “area under the spectrum curve at the wavelength range of 220 nm to 240 nm” value (“area under the spectrum curve … to 240 nm” for short) is on record as 5.4 and the “area under the spectrum curve at the wavelength range of 280 nm to 300 nm” value (shortened to “area under the spectrum curve … to 300 nm”) is 3.7. For the same compound, the “stabilizing effect of the added compound on ramosetron hydrochloride against light (in words)” value (“stabilizing effect … against light (in words)” below) in data set [3] was “a remarkable stabilizing effect of ramosetron hydrochloride against the irradiation with light is found; also recorded: exhibited a remarkable stabilizing effect against light”.
Regarding `O=C([O-])c1ccccc1-c1c2cc(I)c(=O)c(I)c-2oc2c(I)c([O-])c(I)cc12.[Na+].[Na+]` [Food Red No. 3, reference compound], in data set [2], the “area under the spectrum curve … to 240 nm” value is 4.2 and the “area under the spectrum curve … to 300 nm” value was 1.8.
Turning to `OC[C@@H](O)[C@@H](O)[C@H](O)[C@H](O)CO` [mannitol, reference compound], in data set [2], the “area under the spectrum curve … to 240 nm” value worked out at 0.1 and the “area under the spectrum curve … to 300 nm” value came to 0.1. Also, the “stabilizing effect … against light (in words)” value in data set [3] is given as “did not exhibit a remarkable stabilizing effect against light”.
In the case of αG hesperidin, the “stabilizing effect of the added compound on ramosetron under a high-temperature and high-humidity condition (in words)” value in data set [1] was “a remarkable stabilizing effect under a high-temperature and high-humidity condition”. In data set [2], the “area under the spectrum curve … to 240 nm” value is recorded as 6.0 and the “area under the spectrum curve … to 300 nm” value stood at 5.0. Moreover, in data set [3], the “stabilizing effect … against light (in words)” value is reported as “a remarkable stabilizing effect of ramosetron hydrochloride against the irradiation with light is found; also recorded: exhibited a remarkable stabilizing effect against light”.
As to `O=S(=O)([O-])c1cc(S(=O)(=O)[O-])c2c(N=Nc3ccc(S(=O)(=O)[O-])c4ccccc34)c(O)ccc2c1.[Na+].[Na+].[Na+]` [Food Red No. 102], in data set [2], the “area under the spectrum curve … to 240 nm” value was determined as 10.0 and the “area under the spectrum curve … to 300 nm” value is 3.1.
Consider `Cc1cc(S(=O)(=O)[O-])c2c(C)ccc(C(C)C)cc1-2.[Na+]` [sodium azulene sulfonate], for which, in data set [2], the “area under the spectrum curve … to 240 nm” value turned out to be 8.4 and the “area under the spectrum curve … to 300 nm” value is listed as 19.9. Moreover, in data set [3], the “stabilizing effect … against light (in words)” value is recorded as “a remarkable stabilizing effect of ramosetron hydrochloride against the irradiation with light is found; also recorded: exhibited a remarkable stabilizing effect against light”.
